In US8501729B2 (Albany Molecular Research, Inc., priority 2008, dated 2013):
Where two headings read alike, the source gives them in different places.

Assays:
5-HT3 receptors = 5-HT3 receptors (Mus musculus (Mouse), UniProt P23979); experiment: von Bezold-Jarisch model in vivo: inhibition of 5-HT induced bradycardia; settings: 60 min before 5-HT 0.1 mg/kg IV, highest oral dose tested
Procedure: This is a well characterized and widely used model to assess 5-HT3 receptor function in vivo (King et al., 5-Hydroxtryptamine-3 Receptor Antagonists, CRC Press, pp. 74-75 (1993), which is hereby incorporated by reference in its entirety). Certain compounds (Table 1) were evaluated for their ability to inhibit serotonin induced bradycardia in vivo in the mouse (Saxena et al., Arch. Int. Pharmacodyn., 277:235-252 (1985), which is hereby incorporated by reference in its entirety). Test substances and vehicle [2% Tween 80] were each administered orally to a group of 5 male CD-1(Crl.) mice each weighing 24±2 g. A dosing volume of 10 mL/kg was used. Sixty minutes later, 5-HT (0.1 mg/kg IV)-induced bradycardia was recorded in urethane (2250 mg/kg IP, given 10 minutes before 5-HT)-anesthetized animals.

human 5-HT3 receptor = human 5-HT3 receptor (Homo sapiens (Human), UniProt P46098); experiment: radioligand binding assay (SPA format), [9-methyl-3H]BRL-43694 displacement
Sequence of human 5-HT3 receptor (P46098 24-478): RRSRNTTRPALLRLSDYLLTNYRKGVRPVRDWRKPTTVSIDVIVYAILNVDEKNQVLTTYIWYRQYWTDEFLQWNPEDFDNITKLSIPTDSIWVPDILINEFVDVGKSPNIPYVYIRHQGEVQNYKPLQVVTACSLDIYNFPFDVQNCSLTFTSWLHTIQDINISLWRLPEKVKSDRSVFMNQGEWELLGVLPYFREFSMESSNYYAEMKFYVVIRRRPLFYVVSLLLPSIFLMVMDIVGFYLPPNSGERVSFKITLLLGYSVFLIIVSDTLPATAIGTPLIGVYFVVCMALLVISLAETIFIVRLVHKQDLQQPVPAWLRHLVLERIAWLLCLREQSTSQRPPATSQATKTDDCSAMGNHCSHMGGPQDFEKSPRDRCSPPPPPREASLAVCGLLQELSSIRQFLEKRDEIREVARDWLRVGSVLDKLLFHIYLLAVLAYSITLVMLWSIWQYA
Procedure: The relative affinity of the various compounds for the human 5-HT3 receptor was measured in a radioligand binding assay, using a scintillation proximity assay (SPA) format. Test compounds were dissolved to 10 mM in 100% DMSO, then serially diluted at 10× assay concentrations in 100% DMSO in 96-well polypropylene plates and further diluted to 4× assay concentrations with the assay buffer. […] Binding reactions were set up in wells of PicoPlates-96 (Perkin Elmer, Waltham, Mass.) by adding consecutively 50 μL, of each competing compound or buffer, SPA beads, the radioligand and 5-HT3 receptor membranes. After an overnight incubation at room temperature on a Nutator mixer, plates were centrifuged for 15 min at 1,500 rpm, followed by incubation in the dark for 30 min. Radioactivity was counted in the TopCount microplate counter (Perkin Elmer) for 5 min. […] Specific binding was determined by subtracting nonspecific binding from total binding. All experiments were performed in duplicate using ten concentrations of competing ligand, with ondansetron included as a control in every run. IC50 values were determined from specific binding data using XLfit4.1 curve fitting software from IDBS Ltd. The inhibition constant (Ki) was calculated from the Cheng Prusoff equation: (Ki=IC50/(1+(L/KD)), where L=concentration of radioligand in the assay, and KD=affinity of the radioligand for the receptor.

[1] = target: recombinant human 5-HT3A receptors (Homo sapiens (Human), UniProt P46098); experiment: agonist activity (Ca2+ fluorescence, Fluo-4) in HEK293 cells expressing the h5-HT3A receptor subunit; format: cell-based; settings: for activation at 10 µM: HEK293, read-out: HEK293 h5-HT3A % agonist response
Sequence of recombinant human 5-HT3A receptors (P46098 24-478): as above
Procedure: Human embryonic kidney (HEK293) cells expressing the h5-HT3A receptor subunit were seeded directly into poly-D-lysine coated, black-walled, clear bottomed, 96 well plates with approximately 1×10^5 cells per well. After 48 hrs incubation in DMEM growth media (100 μL), cells were washed twice (each 200 μL) in Hank's balanced salt solution (Invitrogen) before incubation (1 hr) with Fluo-4 acetoxymethyl (AM) ester (100 μL, 2.5 μM; Molecular Probes). Cells were washed twice (each 200 μL) in Hank's balanced salt solution and incubated for a further 30 mins in Hank's balanced salt solution (100 μL) prior to assay (25° C.). Alteration in [Ca^2+], was measured (relative fluorescence units [RFU]) using a Flexstation (excitation 488 nm and emission 515 nm; frequency of recording 3 sec). After recording for at least 80 sec, vehicle (Hank's balanced salt solution) or drug was automatically administered to the well (50 μL). Baseline was calculated from the 5 data points immediately prior to the first drug administration and the maximum response was that achieved over the 240 sec following drug administration. In all experiments the muscarinic receptor agonist carbachol (1 mM) was added 240 sec after the test drug administration.

[2] = human 5-HT3 receptor membranes, 10 nM [3H]BRL-43694, Ki from Cheng Prusoff equation, read-out: h5-HT3A Ki

Sequence of 5-HT3 receptors (P23979 24-489): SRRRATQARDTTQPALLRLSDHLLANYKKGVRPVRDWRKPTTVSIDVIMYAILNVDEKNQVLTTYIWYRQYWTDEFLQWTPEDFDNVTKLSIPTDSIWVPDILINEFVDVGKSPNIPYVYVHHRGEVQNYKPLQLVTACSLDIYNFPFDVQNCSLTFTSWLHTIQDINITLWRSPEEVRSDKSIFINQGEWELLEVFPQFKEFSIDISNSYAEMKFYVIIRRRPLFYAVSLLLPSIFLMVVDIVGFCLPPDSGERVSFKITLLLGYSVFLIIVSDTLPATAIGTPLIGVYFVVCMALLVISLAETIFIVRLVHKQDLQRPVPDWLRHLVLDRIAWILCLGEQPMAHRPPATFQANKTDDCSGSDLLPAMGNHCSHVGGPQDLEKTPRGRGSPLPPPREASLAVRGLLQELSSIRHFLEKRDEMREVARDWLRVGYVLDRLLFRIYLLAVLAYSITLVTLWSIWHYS

SMILES | Ki (human 5-HT3 receptor; [2]) [nM] | Ki (human 5-HT3 receptor) [nM] | activation at 10 µM [1] [%] | also measured
Cc1[nH]cnc1CN1CCc2c(c3ccccc3n2C)C1=O [Alosetron, reference compound] | – | – | – | Inhibition of 5-HT Induced Bradycardia in Mice (5-HT3 receptors; 1 mg/kg oral): 95% @ 1 mg/kg
Cn1cc2c3c(cccc31)C(=O)N([C@@H]1CN3CCC1CC3)C2 [Example 4, (S)-5-Methyl-2-(quinuclidin-8-yl)-2,3-dihydropyrrolo[4,3,2-de]isoquinolin-1(5H)-one] | 1 | – | – | –
CN1CC2CCCC1CC(N1Cc3cn(C)c4cccc(c34)C1=O)C2 (stereo not drawn) [Example 5, Endo-5-methyl-2-(9-methyl-9-azabicyclo[3.3.1]nonan-3-yl)-2,3-dihydropyrrolo[4,3,2-de]isoquinolin-1(5H)-one] | 13 | – | – | –
Cn1nc2c3c(cccc31)C(=O)N([C@@H]1CN3CCC1CC3)C2 [Example 6, (S)-2-Methyl-7-(quinuclidin-3-yl)-7,8-dihydropyrazolo[3,4,5-de]isoquinolin-6(2H)-one] | – | 1 | – | –
CCn1nc2c3c(cccc31)C(=O)N([C@@H]1CN3CCC1CC3)C2 [Example 8, (S)-2-ethyl-7-(quinuclidin-3-yl)-7,8-dihydropyrazolo[3,4,5-de]isoquinolin-6(2H)-one] | – | 1 | – | –
CC(C)Cn1nc2c3c(cccc31)C(=O)N([C@@H]1CN3CCC1CC3)C2 [Example 9] | – | 2 | – | –
Cn1nc2c3c(cccc31)C(=O)N([C@H]1CN3CCC1CC3)C2 [Example 12, (R)-2-Methyl-7-(quinuclidin-3-yl)-7,8-dihydropyrazolo[3,4,5-de]isoquinolin-6(2H)-one] | – | 2 | 6 | –
Cn1nc2c3c(cc(F)cc31)C(=O)N([C@H]1CN3CCC1CC3)C2 [Example 13] | – | – | 6 | –
CCn1nc2c3c(cccc31)C(=O)N([C@H]1CN3CCC1CC3)C2 [Example 14, (R)-2-Ethyl-7-(quinuclidin-3-yl)-7,8-dihydropyrazolo[3,4,5-de]isoquinolin-6(2H)-one] | – | – | 4 | –
CC(C)n1nc2c3c(cccc31)C(=O)N([C@H]1CN3CCC1CC3)C2 [Example 15, (R)-2-Isopropyl-7-(quinuclidin-3-yl)-7,8-dihydropyrazolo[3,4,5-de]isoquinolin-6(2H)-one] | – | – | 3 | –
O=C1c2cccc3[nH]nc(c23)CN1[C@H]1CN2CCC1CC2 [Example 16, (R)-7-(Quinuclidin-3-yl)-7,8-dihydropyrazolo[3,4,5-de]isoquinolin-6(2H)-one] | – | – | 35 | –
O=C1c2cccc3c2c(nn3Cc2ccccc2)CN1[C@H]1CN2CCC1CC2 [Example 17] | – | 5 | – | –
O=C1c2cccc3c2c(nn3-c2ccc(Cl)cc2)CN1[C@H]1CN2CCC1CC2 [Example 19] | – | 68 | – | –
COc1ccc(-n2nc3c4c(cccc42)C(=O)N([C@H]2CN4CCC2CC4)C3)cc1 [Example 20] | – | 57 | – | –
O=C1c2cc(Br)cc3[nH]nc(c23)CN1[C@H]1CN2CCC1CC2 [Example 21] | – | 1 | – | –
CN1C2CCCC1CC(N1Cc3nn(C)c4cccc(c34)C1=O)C2 (stereo not drawn) [Example 22, 7-(Endo-N-(9-methyl-9-azabicyclo[3.3.1]nonan-3-yl))-2-methyl-7,8-dihydropyrazolo[3,4,5-de]isoquinolin-6(2H)-one] | – | 34 | – | –
O=C1c2cccc3[nH]cc(c23)CCN1[C@@H]1CN2CCC1CC2 [Example 29, (S)-2-(Quinuclidin-3-yl)-2,3,4,6-tetrahydro-1H-azepino[5,4,3-cd]indol-1-one] | 3 | – | – | HEK293 h5-HT3A % agonist response ([1]; at 10 μM, normalized to the response of 5-HT (100% at 3 μM), NR = no response): 17%; Inhibition of 5-HT Induced Bradycardia in Mice (5-HT3 receptors; 1 mg/kg oral): 94% @ 1 mg/kg
Cn1cc2c3c(cccc31)C(=O)N([C@@H]1CN3CCC1CC3)CC2 [Example 31, (S)-6-methyl-2-(quinuclidin-3-yl)-2,3,4,6-tetrahydro-1H-azepino[5,4,3-cd]indol-1-one] | 1 | – | 5 | –
O=C1c2cccc3c2c(cn3Cc2ccccc2)CCN1[C@@H]1CN2CCC1CC2 [Example 32, (S)-6-benzyl-2-(quinuclidin-3-yl)-2,3,4,6-tetrahydro-1H-azepino[5,4,3-cd]indol-1-one] | 1 | – | – | –
O=C1c2cccc3[nH]cc(c23)CCN1[C@H]1CN2CCC1CC2 [Example 33, (R)-2-(Quinuclidin-3-yl)-2,3,4,6-tetrahydro-1H-azepino[5,4,3-cd]indol-1-one] | 49 | – | 14 | –
Cn1cc2c3c(cccc31)C(=O)N([C@H]1CN3CCC1CC3)CC2 [Example 34, (R)-6-methyl-2-(quinuclidin-3-yl)-2,3,4,6-tetrahydro-1H-azepino[5,4,3-cd]indol-1-one] | 8 | – | 13 | Inhibition of 5-HT Induced Bradycardia in Mice (5-HT3 receptors; 3 mg/kg oral): 88% @ 3 mg/kg
O=C1c2cccc3c2c(cn3Cc2ccccc2)CCN1[C@H]1CN2CCC1CC2 [Example 35, (R)-6-benzyl-2-(quinuclidin-3-yl)-2,3,4,6-tetrahydro-1H-azepino[5,4,3-cd]indol-1-one] | 13 | – | – | –
O=C1c2cccc3c2c(cn3-c2ccc(F)cc2)CCN1[C@H]1CN2CCC1CC2 [Example 36, (R)-6-(4-fluorophenyl)-2-(quinuclidin-3-yl)-2,3,4,6-tetrahydro-1H-azepino[5,4,3-cd]indol-1-one] | – | – | – | inhibition at 10 µM (human 5-HT3 receptor; 10 μM, read-out: h5-HT3A inhibition @ 10 μM): 49%
CN1C2CCCC1CC(N1CCc3cn(C)c4cccc(c34)C1=O)C2 (stereo not drawn) [Example 37, Endo-6-methyl-2-(9-methyl-9-azabicyclo[3.3.1]nonan-3-yl)-2,3,4,6-tetrahydro-1H-azepino[5,4,3-cd]indol-1-one] | 267 | – | – | –
CN1C2CCC1CC(N1Cc3nn(C)c4cccc(c34)C1=O)C2 (stereo not drawn) [Example 38, Endo-2-methyl-7-(8-methyl-8-azabicyclo[3.2.1]octan-3-yl)-7,8-dihydropyrazolo[3,4,5-de]isoquinolin-6(2H)-one] | – | 59 | – | –
Cn1cc(C(=O)[C@@H]2CCc3nc[nH]c3C2)c2ccccc21 [Ramosetron, reference compound] | 0.06 | – | – | Inhibition of 5-HT Induced Bradycardia in Mice (5-HT3 receptors; 0.1 mg/kg oral): 77% @ 0.1 mg/kg
